These results are taken from PubChem BioAssay (NCI).

Some test systems named below: DLD-1 colon; SNB-78 CNS; HS 578T breast; DU-145 prostate; MDA-MB-231 breast; MDA-N.
Common to all, as to assay: NCI tumour cell line growth inhibition, 48 h

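Dose response: 5 concentrations. Exposure: 48 h. Format: 96-well plates. Endpoint: linear interpolation; highest concentration if not reached. GI50 = concentration required for 50% inhibition of growth. Definition used: TGI = concentration required for complete inhibition of growth.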

For `CC1CCP(=O)(c2ccccc2)c2ccccc21` (stereo not given), the TGI in the assay with DLD-1 colon and in the assay with SNB-78 CNS was greater than 100 µM in each case.
Consider `COc1ccc(NC(=O)C(=O)Cc2nc3ccc([N+](=O)[O-])cc3[nH]c2=O)c(OC)c1`, for which the TGI in the assay with DLD-1 colon was greater than 100 µM.
As to `COc1cc2c(c(OC)c1OC)-c1ccc(N)c(=O)cc1[C@@H](NC(C)=O)CC2`, the GI50 with HS 578T breast was 0.0127 µM; in the assay on DU-145 prostate, 0.0291 µM. Further, the TGI with HS 578T breast is greater than 100 µM; with DU-145 prostate it was 0.0951 µM.
In the case of `CCCCCCCCCCCCCCN`, the TGI in the assay on HS 578T breast, in the assay with MDA-MB-231 breast, in the assay on DU-145 prostate and in the assay on MDA-N was greater than 100 µM each time.
As to `O=C1c2ccc([N+](=O)[O-])cc2-c2c1c1ccccc1c(=O)n2CCCNCCCNCCCn1c2c(c3ccc([N+](=O)[O-])cc3c1=O)C(=O)c1ccccc1-2`, the GI50 in the assay with HS 578T breast is 1.43 µM; in the assay with MDA-MB-231 breast it was 0.407 µM; in the assay on DU-145 prostate it was 0.667 µM. The TGI in the assay with HS 578T breast came to 22.7 µM; in the assay with MDA-MB-231 breast, 2.85 µM; with DU-145 prostate, 2.03 µM.
For the compound `O=C(/C=C/C12c3ccccc3C(c3ccccc31)C1C(=O)N(c3ccccc3)C(=O)C12)c1ccccc1` (stereo not given), the GI50 with HS 578T breast was 2.32 µM; with MDA-MB-231 breast it was 2.23 µM; in the assay on DU-145 prostate it was 2.14 µM. The results for the TGI in the assay with HS 578T breast, with MDA-MB-231 breast and with DU-145 prostate were greater than 100 µM, 6.77 µM and 6.03 µM, respectively.
As to `O=C(c1ccc2ccccc2c1)c1c(C(F)(F)F)n([O-])c2cc(F)c(F)cc2[n+]1=O`, in the assay on MDA-MB-231 breast, the GI50 is 1.86 µM and the TGI amounted to 3.99 µM. In addition, in the assay with DU-145 prostate, the GI50 is 1.46 µM and the TGI came out at 4.33 µM.
As to `CN1CCN(c2ccc(NC(=O)c3nc4ccc5[nH]ncc5c4c4c3CCCC4)cc2C(F)(F)F)CC1`, the values for the GI50 in the assay with HS 578T breast, in the assay on MDA-MB-231 breast and in the assay on DU-145 prostate were 5.99 µM, 0.941 µM and 1.03 µM, respectively. Also, the values for the TGI in the assay on HS 578T breast, in the assay with MDA-MB-231 breast and with DU-145 prostate were 19.4 µM, 1.72 µM and 2.15 µM, respectively.
As to `COc1ccc2c(c1)C(=O)c1c-2n(CCCN=[N+]=[N-])c(=O)c2cc(N(C)C)ccc12`, the GI50 was 37.5 µM with HS 578T breast, greater than 100 µM in the assay with MDA-MB-231 breast and greater than 100 µM in the assay on DU-145 prostate. In addition, the TGI in the assay on HS 578T breast, with MDA-MB-231 breast and with DU-145 prostate was greater than 100 µM in each case.
Consider `CCCn1c(SC)nc(COC(=O)NC)c1COC(=O)NC`, for which the TGI in the assay with HS 578T breast, with MDA-MB-231 breast, with DU-145 prostate and with MDA-N was greater than 100 µM in each case.
Take `CCCc1c(CC)c(=N)c2ccccc2n1C`: the GI50 with HS 578T breast, in the assay on MDA-MB-231 breast and in the assay on DU-145 prostate was greater than 100 µM throughout. Further, the TGI in the assay on HS 578T breast, with MDA-MB-231 breast and with DU-145 prostate was greater than 100 µM each time.
Take `O=C(/C(=C\C(=O)c1cccs1)c1ccsc1)c1ccc(Br)cc1`: the TGI in the assay with HS 578T breast, with MDA-MB-231 breast, with DU-145 prostate and in the assay on MDA-N was greater than 100 µM throughout.
For the compound `Oc1ccc(C(c2ccc(O)cc2)c2ccc(Cl)cn2)cc1`, the GI50 is 0.0216 µM with HS 578T breast, 28 µM in the assay with MDA-MB-231 breast and 1.06 µM with DU-145 prostate. Also, the TGI is 0.0624 µM with HS 578T breast, greater than 100 µM in the assay on MDA-MB-231 breast and greater than 100 µM in the assay on DU-145 prostate.
Regarding `CCOC(=O)C1=C(C(=O)c2ccc(C)cc2)C(c2cccc([N+](=O)[O-])c2)C(C(=O)c2ccc(C)cc2)=C(C(=O)OCC)N1`, the TGI in the assay on HS 578T breast is 63.9 µM; with MDA-MB-231 breast it was 29 µM; in the assay with DU-145 prostate, 32.2 µM.
Regarding `O=C(Nc1ccc(F)cc1)c1ccc(NC2=C(Cl)C(=O)N(Cc3ccccc3)C2=O)cc1`, the GI50 in the assay on HS 578T breast is 13.2 µM; in the assay on MDA-MB-231 breast, 17.2 µM; with DU-145 prostate it was 6.48 µM. Also, the TGI in the assay with HS 578T breast came to 62.3 µM; with MDA-MB-231 breast, 38 µM; in the assay with DU-145 prostate it was 29.8 µM.
Consider `O=Nc1c(-c2c(O)[nH]c3ccc([N+](=O)[O-])cc23)[nH]c2ccc(O)cc12`, for which the GI50 in the assay on HS 578T breast was 0.345 µM; with MDA-MB-231 breast it was 0.5 µM; with DU-145 prostate, 0.305 µM. The results for the TGI in the assay with HS 578T breast and with MDA-MB-231 breast were greater than 100 µM and greater than 52.7 µM, respectively.
With `FC(F)(F)c1cc(-c2nnc3n2N=C(N2CCCC2)CS3)cc(C(F)(F)F)c1`, the figures for the GI50 in the assay with HS 578T breast, in the assay with MDA-MB-231 breast and in the assay on DU-145 prostate were 17.9 µM, 32.2 µM and greater than 50 µM, respectively. Moreover, the TGI in the assay on HS 578T breast, with MDA-MB-231 breast and in the assay on DU-145 prostate was greater than 50 µM in each case.
Regarding `C=CCN(/C=C1/C(=O)O[C@H](COC)[C@@]2(C)C1=C(O)C(=O)C1=C2[C@H](OC(C)=O)C[C@]2(C)C(=O)CC[C@@H]12)CC=C`, the GI50 is 0.128 µM with HS 578T breast, 6.23 µM in the assay with MDA-MB-231 breast and 2.43 µM in the assay on DU-145 prostate. In addition, the TGI with HS 578T breast is 1.94 µM; in the assay with MDA-MB-231 breast, greater than 10 µM; in the assay with DU-145 prostate, greater than 10 µM.
On to `CCOC(=O)C1=C(c2ccccc2)N(C)c2ccccc2S1`, for which the TGI in the assay on HS 578T breast is 72.3 µM; with MDA-MB-231 breast, 58.9 µM; in the assay on DU-145 prostate, greater than 100 µM.
Take `COc1ccc2c(c1)/C(=C\c1cccnc1)C(=O)N2`: the GI50 is 31.1 µM with HS 578T breast, 16.3 µM in the assay on MDA-MB-231 breast and 2.52 µM in the assay with DU-145 prostate. Also, the figures for the TGI in the assay with HS 578T breast, in the assay on MDA-MB-231 breast and in the assay with DU-145 prostate were 94.7 µM, 35.5 µM and 21.3 µM, respectively.
`COc1ccc(-c2nc3sc(-c4ccc(Cl)cc4)cn3n2)cc1`: the GI50 is 2.31 µM in the assay on HS 578T breast, 2.06 µM in the assay with MDA-MB-231 breast and greater than 50 µM in the assay with DU-145 prostate. The TGI in the assay with HS 578T breast is greater than 50 µM; in the assay on MDA-MB-231 breast it was 16.7 µM; with DU-145 prostate, greater than 50 µM.
On to `O=C(Nc1ccc(Cl)cc1Cl)C(=O)C(C(=O)c1ccc2ccccc2c1)C1OC(=O)c2ccccc21` (stereo not given), for which the TGI in the assay with DLD-1 colon was 30.9 µM; in the assay on SNB-78 CNS, 78.4 µM.
Regarding `CC(=O)/C(=C/n1c(=S)[nH]c2ccccc21)C(=O)Nc1ccccc1C`, the TGI with MDA-MB-231 breast, in the assay with DU-145 prostate and in the assay on MDA-N was greater than 100 µM throughout.
Take `COc1ccc(-c2cc(=O)c3c(C)cc(C)nc3[nH]2)cc1`: the TGI in the assay on HS 578T breast is greater than 100 µM; in the assay with MDA-MB-231 breast, 67.5 µM; with DU-145 prostate, greater than 100 µM; in the assay on MDA-N it was greater than 100 µM. Moreover, in the assay on MDA-N, the GI50 was 33.2 µM.
